From patent US9539229B2, “Intestinal tract-protecting agent containing hydroxylated fatty acid” (KYOTO UNIVERSITY, priority 2013, dated 2017) come the findings set out here.

For assay [1], the system named is tight junction-related factors (MLCK, occludin) in Caco-2 monolayer cells. Description: Gene expression of tight junction-related factors in Caco-2 monolayer cells (real-time PCR). The assay is classed as cell-based, human. Particulars: IFN-γ and TNF-α, 6 hr, FIG. 4. On the procedure:
(§1) To the inner side culture medium of each well of the Caco-2 monolayer cells prepared by the aforementioned method was added a solution of HYA, HYB, KetoA, KetoB or KetoC (each 50 μM concentration, 500 μL), and the mixture was cultured for 24 hr. Then, IFN-γ was added to the outer side culture medium to the final concentration of 50 ng/mL and, after culture for 24 hr, the outer side medium was once removed. TNF-α was added to 50 ng/mL, the mixture was further cultured for 6 hr, and the below-mentioned intestinal tract barrier protection effect was evaluated. Also, a well free of test fatty acid and added with IFN-γ and TNF-α, and a well free of test fatty acid solution, IFN-γ and TNF-α (hereinafter to be also referred to as control) were prepared.
(§2) In the same manner as in the aforementioned Example, HYA was added and, 6 hr later, the Caco-2 monolayer cells were washed 3 times with PBS, and RNA was extracted with TRIzol (registered trade mark) (manufactured by Life Technologies) from the cells. RNA was reverse-transcribed using a high-capacity cDNA reverse transcription kit (Life Technologies) to give cDNA, and real-time PCR analysis was performed using KAPA SYBR FAST ABI PRISM qPCR kit (Kapa Biosystems). […]

In assay [2] the test system is tight junction-related factors in large intestinal tissues. Description: Gene expression of tight junction-related factors in large intestinal tissues of DSS-induced enteritis model mouse (real-time PCR). Particulars: oral 100 nmol/day, FIG. 10. The format is in vivo, BALB/c mice. As for the experimental part: (§3) BALB/c mice (♀, 6-week-old) were purchased from Charles River Japan (Kanagawa, Japan), and all experiment plans were carried out in accordance with Hiroshima University, Animal Experiment Rule (No. C10-17). Acute colitis was induced by allowing free intake of 3.5% (w/v) DSS (molecular weight 36000-50000; MP Biomedicals, Aurora, Ohio, USA) for 5 days. To evaluate the effect of HYA and HYB on large intestine, 100 μL of a suspension of HYA or HYB (each 100 nmol) was orally administered to the mice. This administration was performed every day for total 10 days, for 5 days before DSS administration and 5 days after the start of the administration. The symptoms of colitis were evaluated every day based on a decrease in body weight, condition of feces and bleeding from the anus. After administration of DSS for 5 days, the mouse was sacrificed, and the length of the large intestine was measured. Thereafter, RNA was extracted from the large intestine tissue by using RNeasy Mini Kit (Qiagen, Maryland, Md., USA). Paraffin section (7 μm) of the large intestine tissue was produced, stained with hematoxylin-eosin, and histochemically evaluated. The extracted RNA was reverse-transcribed using a high-capacity cDNA reverse transcription kit (Life Technologies) to give cDNA, and real-time PCR analysis was performed using a KAPA SYBR FAST ABI PRISM qPCR kit (Kapa Biosystems). As the primer, oligoDNA pairs of nucleotide sequences were used: SEQ ID NOs: 5 and 6 for Claudin-1, SEQ ID NOs: 13 and 14 for Claudin-3, SEQ ID NOs: 15 and 16 for Claudin-4, SEQ ID NOs: 7 and 8 for ZO-1, SEQ ID NOs: 17 and 18 for ZO-2, SEQ ID NOs: 9 and 10 for Occludin, and SEQ ID NOs: 11 and 12 for MLCK.
A general note: Real-time PCR tracks product formation cycle by cycle.

Assay [3] has as its system DSS-induced enteritis model mouse. The assay can be described thus: Dextran sodium sulfate (DSS)-induced enteritis model mouse: body weight, feces, large intestine length, histology. The format is in vivo, BALB/c mice. Particulars: 100 nmol orally every day for 10 days, 3.5% DSS for 5 days. As for the experimental part: as §3
For assay [4], the system named is IL-8 production in Caco-2 cells. The assay can be described thus: IL-8 production in Caco-2 monolayer cells stimulated with IFN-γ and TNF-α (ELISA). The assay is classed as cell-based, human. Particulars: 50 μM, IFN-γ and TNF-α stimulation, outer side culture medium 6 hr after TNF-α addition, FIG. 3A. As for the experimental part: (§4) Caco-2 cells were placed in a 75 cm^2 tissue culture flask, and cultured up to about 80% confluence at 37° C. The cells were inoculated in a 12-well transwell (Transwell (registered trade mark)) cell culture chamber (permeable membrane; diameter 12 mm, pore size 0.4 μm) at a cell concentration of 2×10^5 cells/cm^2, and cultured at 37° C. for 14 days under 5% CO2 atmosphere to give Caco-2 monolayer cells. Furthermore, to verify whether or not tight junction is sufficiently formed, Caco-2 monolayer cells having transepithelial electrical resistance (TER) of about 900-1,000 Ωcm^2 or more were used for the assay. […]
(§5) To the inner side culture medium of each well of the Caco-2 monolayer cells prepared by the aforementioned method was added a solution of HYA, HYB, KetoA, KetoB or KetoC (each 50 μM concentration, 500 μL), and the mixture was cultured for 24 hr. […] TNF-α was added to 50 ng/mL, the mixture was further cultured for 6 hr, and the below-mentioned intestinal tract barrier protection effect was evaluated. […]
(§6) The intestinal tract barrier protection effect by test fatty acid solution was compared using transepithelial electrical resistance (TER) value (Ω·cm^2) and IL-8 production (pg/mL) as indices. With a resistance value measurement system (Millicell-ERS, Millipore) using an Ag/AgCl electrode, each TER value at 0, 1, 2, 3, 4, 5 and 6 hr after addition of TNF-α was measured. […]
(ELISA stands for enzyme-linked immunosorbent assay.)

Assay [5] relates to IL-8 mRNA in Caco-2 cells. The assay can be described thus: IL-8 mRNA expression in Caco-2 monolayer cells (real-time PCR). Particulars: IFN-γ and TNF-α, FIG. 3B. The assay is classed as cell-based, human. On the procedure: as §1, §2
In another assay the test system is Caco-2 monolayer cells. The assay can be described thus: Intestinal tract barrier protection: transepithelial electrical resistance (TER) of Caco-2 monolayer cells stimulated with IFN-γ and TNF-α. The format is cell-based, human. Particulars: 50 μM test fatty acid 24 hr, then IFN-γ 50 ng/mL 24 hr, TNF-α 50 ng/mL, 0-6 hr; FIG. 2. As for the experimental part:
as §4, §5, §6

Regarding `CCCCC/C=C\CC(O)CCCCCCCCC(=O)O` (stereo not drawn) [HYA, 10-hydroxy-cis-12-octadecenoic acid], in assay [1], the “mRNA expression of MLCK” value was “suppression of an increase in the mRNA expression of MLCK”; the “mRNA expression of occludin” value was “suppression of an increase in the mRNA expression of MLCK and a decrease in the mRNA expression of occludin”. Besides, in assay [2] (compared to the DSS mouse), the “mRNA expression of MLCK in large intestine tissue” value is “significant recovery of the mRNA expression of occludin and MLCK”; the “mRNA expression of occludin in large intestine tissue” value is “significant recovery of the mRNA expression of occludin and MLCK”. In addition, the weight loss entry in assay [3] (FIG. 5, 6) is recorded as “effective for the suppression of weight loss”. The stool score result in assay [3] (FIG. 7) is on record as “recovery of stool score”. The “length of large intestine” value in assay [3] (FIG. 8) is given as “protection of large intestine”. In addition, the “histochemical evaluation of the large intestine section (H&E staining)” value in assay [3] (FIG. 9) is listed as “showed recovery of tissue damage”. Moreover, the IL-8 production result in assay [4] is “suppression of IL-8 production was observed”. For the same molecule, the “mRNA expression of IL-8” value in assay [5] was “suppressed such increase in the expression”. For the same molecule, the “TER relative value (Relative TER)” value in the assay with Caco-2 monolayer cells is given as “showed suppression of a decrease in the TER relative value”.
As to `CCCCCCCCC(O)CCCCCCCCC(=O)O` (centres unmarked) [HYB, 10-hydroxyoctadecanoic acid], the “mRNA expression of all TJ-associated factors (claudin-1, -3, -4, occludin, MLCK, ZO-1, ZO-2) in large intestine tissue” value in assay [2] (DSS mouse) is on record as “did not show recovery from abnormal expression of all TJ-associated factors”. Further, the IL-8 production entry in assay [4] is recorded as “suppression of IL-8 production was observed”. Also, the “mRNA expression of IL-8” value in assay [5] is “suppressed such increase in the expression”.
